The text below walks through data of ChEMBL document CHEMBL1130210, “Steroidal glycoside cholesterol absorption inhibitors” (1997).

SMILES strings stand for the structures.

The subject of the assay is Cricetinae gen. sp. In words: Ability to inhibit the intestinal absorption of [3H]cholesterol in cholesterol-fed hamsters. The format is functional.
What is called ED50 is the dose at which the effect has come halfway, by size or by number of responders. As for `C[C@]12CC[C@H](O[C@@H]3O[C@@H](CO)[C@@H](O[C@@H]4O[C@@H](CO)[C@@H](O)[C@H](O)[C@@H]4O)[C@H](O)[C@@H]3O)C[C@@H]1CC[C@@H]1[C@@H]2CC[C@]2(C)C(=O)CC[C@@H]12`, the ED50 is 25 mg/kg.
In turn, `C[C@@H]1CC[C@@]2(OC1)OC1CC3C4CC[C@H]5C[C@@H](O[C@@H]6O[C@@H](COC(=O)Nc7c(Cl)cccc7Cl)[C@@H](O[C@@H]7O[C@@H](COC(=O)Nc8c(Cl)cccc8Cl)[C@@H](O)[C@H](O)[C@@H]7O)[C@H](O)[C@@H]6O)CC[C@]5(C)C4C(=O)C[C@]3(C)C1[C@@H]2C` (stereo partly specified) gave an ED50 of 0.4 mg/kg.
Next, `C[C@@H]1CC[C@@]2(OC1)OC1CC3C4CC[C@H]5C[C@@H](O[C@@H]6O[C@@H](CO)[C@@H](O[C@@H]7O[C@@H](COC(=O)NCc8ccccc8)[C@@H](O)[C@H](O)[C@@H]7O)[C@H](O)[C@@H]6O)CC[C@]5(C)C4C(=O)C[C@]3(C)C1[C@@H]2C` (stereo partly specified): 5 mg/kg; `C[C@@H]1CC[C@@]2(OC1)OC1CC3C4CC[C@H]5C[C@@H](O[C@@H]6O[C@@H](CO)[C@@H](O[C@@H]7O[C@@H](COC(=O)NCc8ccccc8)[C@@H](OC(=O)NCc8ccccc8)[C@H](O)[C@@H]7O)[C@H](O)[C@@H]6O)CC[C@]5(C)C4C(=O)C[C@]3(C)C1[C@@H]2C` (stereo partly specified): 0.3 mg/kg; `CC1CC[C@@]2(OC1)OC1C[C@H]3[C@@H]4CC[C@H]5C[C@@H](OC6OC(CI)C(OC7OC(CI)C(O)C(O)C7O)C(O)C6O)CC[C@]5(C)[C@H]4C(=O)C[C@]3(C)C1[C@@H]2C` (stereo partly specified): 1.5 mg/kg.
Next, `CC1CC[C@@]2(OC1)OC1C[C@H]3[C@@H]4CC[C@H]5C[C@@H](OC6OC(CCl)C(OC7OC(CCl)C(O)C(O)C7O)C(O)C6O)CC[C@]5(C)[C@H]4C(=O)C[C@]3(C)C1[C@@H]2C` (stereo partly specified): 0.5 mg/kg.
In turn, `C[C@@H]1CC[C@@]2(OC1)OC1CC3C4CC[C@H]5C[C@@H](O[C@@H]6O[C@@H](CO)[C@@H](O[C@@H]7O[C@@H](COC(=O)Nc8cccc(F)c8)[C@@H](OC(=O)Nc8cccc(F)c8)[C@H](O)[C@@H]7O)[C@H](O)[C@@H]6O)CC[C@]5(C)C4C(=O)C[C@]3(C)C1[C@@H]2C` (stereo partly specified) returned an ED50 of 0.1 mg/kg.
Next, `C[C@@H]1CC[C@@]2(OC1)OC1CC3C4CC[C@H]5C[C@@H](O[C@@H]6O[C@@H](CO)[C@@H](O[C@@H]7O[C@@H](COC(=O)Nc8ccccc8F)[C@@H](OC(=O)Nc8ccccc8F)[C@H](O)[C@@H]7O)[C@H](O)[C@@H]6O)CC[C@]5(C)C4C(=O)C[C@]3(C)C1[C@@H]2C` (stereo partly specified): 0.025 mg/kg; `CCOC(=O)CNC(=O)OC[C@@H]1O[C@@H](O[C@H]2[C@H](O)[C@H](O)[C@H](O[C@H]3CC[C@]4(C)C5C(=O)C[C@@]6(C)C(CC7O[C@]8(CC[C@@H](C)CO8)[C@@H](C)C76)C5CC[C@H]4C3)O[C@H]2CO)[C@@H](O)[C@@H](O)[C@@H]1OC(=O)NCC(=O)OCC` (stereo partly specified): 0.6 mg/kg.
`C[C@@H]1CC[C@@]2(OC1)OC1CC3C4CC[C@H]5C[C@@H](O[C@@H]6O[C@@H](CO)[C@@H](O[C@@H]7O[C@@H](COC(=O)Nc8ccccc8F)[C@@H](OC(=O)Nc8ccccc8F)[C@H](O)[C@@H]7O)[C@H](O)[C@@H]6O)CC[C@]5(C)C4CC[C@]3(C)C1[C@@H]2C` (stereo partly specified) had a 50% effective dose (ED50) of 1 mg/kg.
Next, `C[C@@H]1CC[C@@]2(OC1)OC1CC3C4CC[C@H]5C[C@@H](O[C@@H]6O[C@@H](COC(=O)Nc7ccccc7F)[C@@H](O[C@@H]7O[C@@H](COC(=O)Nc8ccccc8F)[C@@H](O)[C@H](O)[C@@H]7O)[C@H](O)[C@@H]6O)CC[C@]5(C)C4C(=O)C[C@]3(C)C1[C@@H]2C` (stereo partly specified): 0.8 mg/kg; `C[C@H]1CC[C@@]2(OC1)O[C@H]1C[C@H]3[C@@H]4CC[C@@H]5C[C@@H](O[C@@H]6O[C@@H](CO)[C@@H](O[C@@H]7O[C@@H](CO)[C@@H](O)[C@H](O)[C@@H]7O)[C@H](O)[C@@H]6O)CC[C@]5(C)[C@H]4CC[C@]3(C)C1[C@@H]2C` (stereo partly specified): 75 mg/kg; `Cc1ccccc1NC(=O)OC[C@@H]1O[C@@H](O[C@H]2[C@H](O)[C@H](O)[C@H](O[C@H]3CC[C@]4(C)C5C(=O)C[C@@]6(C)C(CC7O[C@]8(CC[C@@H](C)CO8)[C@@H](C)C76)C5CC[C@H]4C3)O[C@H]2CO)[C@@H](O)[C@@H](O)[C@@H]1O` (stereo partly specified): 0.5 mg/kg.
In turn, `C[C@@H]1CC[C@@]2(OC1)OC1CC3C4CC[C@H]5C[C@@H](O[C@@H]6O[C@@H](CO)[C@@H](O[C@@H]7O[C@@H](COC(=O)NCc8ccco8)[C@@H](OC(=O)NCc8ccco8)[C@H](O)[C@@H]7O)[C@H](O)[C@@H]6O)CC[C@]5(C)C4C(=O)C[C@]3(C)C1[C@@H]2C` (stereo partly specified) returned an ED50 of 0.3 mg/kg.
Next, `C[C@@H]1CC[C@@]2(OC1)OC1CC3C4CC[C@H]5C[C@@H](O[C@@H]6O[C@@H](CO)[C@@H](O[C@@H]7O[C@@H](COC(=O)Nc8c(Cl)cccc8Cl)[C@@H](O)[C@H](O)[C@@H]7O)[C@H](O)[C@@H]6O)CC[C@]5(C)C4C(=O)C[C@]3(C)C1[C@@H]2C` (stereo partly specified): 0.2 mg/kg.
Next, `C[C@@H]1CC[C@@]2(OC1)OC1C[C@H]3[C@@H]4CC[C@H]5C[C@@H](O[C@@H]6O[C@@H](CO)[C@@H](O[C@@H]7O[C@@H](COC(=O)Nc8ccccc8F)[C@@H](O)[C@H](O)[C@@H]7O)[C@H](O)[C@@H]6O)CC[C@]5(C)[C@H]4C(=O)C[C@]3(C)C1[C@@H]2C` (stereo partly specified): 0.2 mg/kg; `C[C@@H]1CC[C@@]2(OC1)O[C@H]1C[C@H]3[C@@H]4CC[C@H]5C[C@@H](O[C@@H]6O[C@H](CO)[C@H](O)[C@H](O)[C@H]6O)CC[C@]5(C)[C@H]4C(=O)C[C@]3(C)[C@H]1[C@@H]2C`: 12 mg/kg; `C[C@@H]1CC[C@@]2(OC1)OC1CC3C4CC[C@H]5C[C@@H](O[C@@H]6O[C@@H](CO)[C@@H](O[C@@H]7O[C@@H](COC(=S)Nc8ccccc8)[C@@H](OC(=S)Nc8ccccc8)[C@H](O)[C@@H]7O)[C@H](O)[C@@H]6O)CC[C@]5(C)C4C(=O)C[C@]3(C)C1[C@@H]2C` (stereo partly specified): 0.04 mg/kg.
As to `C[C@@H]1CC[C@@]2(OC1)OC1CC3C4CC[C@H]5C[C@@H](O[C@@H]6O[C@@H](CO)[C@@H](O[C@@H]7O[C@@H](COC(=O)Nc8ccccc8F)[C@@H](OC(=O)Nc8ccccc8F)[C@H](O)[C@@H]7O)[C@H](O)[C@@H]6O)CC[C@]5(C)C4CC(=O)[C@]3(C)C1[C@@H]2C` (stereo partly specified), the 50% effect level (ED50) was put at a dose of 0.07 mg/kg.
Next, `C[C@@H]1CC[C@@]2(OC1)OC1CC3C4CC[C@H]5C[C@@H](O[C@@H]6O[C@@H](CO)[C@@H](O[C@@H]7O[C@@H](COC(=O)NCCc8ccccc8)[C@@H](O)[C@H](O)[C@@H]7O)[C@H](O)[C@@H]6O)CC[C@]5(C)C4C(=O)C[C@]3(C)C1[C@@H]2C` (stereo partly specified): 5 mg/kg; `C[C@@H]1CC[C@@]2(OC1)OC1CC3C4CC[C@H]5C[C@@H](O[C@@H]6O[C@@H](COC(=O)Nc7ccccc7F)[C@@H](O[C@@H]7O[C@@H](CO)[C@@H](O)[C@H](O)[C@@H]7O)[C@H](O)[C@@H]6O)CC[C@]5(C)C4C(=O)C[C@]3(C)C1[C@@H]2C` (stereo partly specified): 7 mg/kg; `C[C@@H]1CC[C@@]2(OC1)OC1CC3C4CC[C@H]5C[C@@H](O[C@@H]6O[C@@H](CO)[C@@H](O[C@@H]7O[C@@H](COC(=O)Nc8ccc(F)cc8F)[C@@H](OC(=O)Nc8ccc(F)cc8F)[C@H](O)[C@@H]7O)[C@H](O)[C@@H]6O)CC[C@]5(C)C4C(=O)C[C@]3(C)C1[C@@H]2C` (stereo partly specified): 0.04 mg/kg.
The compound `CC1CC[C@@]2(OC1)OC1C[C@H]3[C@@H]4CC[C@H]5C[C@@H](OC6OC(C)C(OC7OC(C)C(O)C(O)C7O)C(O)C6O)CC[C@]5(C)[C@H]4C(=O)C[C@]3(C)C1[C@@H]2C` (stereo partly specified) had an ED50 of 6.5 mg/kg.
`C[C@@H]1CC[C@@]2(OC1)OC1CC3C4CC[C@H]5C[C@@H](O[C@@H]6O[C@@H](COC(=O)Nc7ccccc7)[C@@H](O[C@@H]7O[C@@H](COC(=O)Nc8ccccc8)[C@@H](O)[C@H](O)[C@@H]7O)[C@H](O)[C@@H]6O)CC[C@]5(C)C4C(=O)C[C@]3(C)C1[C@@H]2C` (stereo partly specified): the ED50 was found to be 5 mg/kg.
Next, `C[C@@H]1CC[C@@]2(OC1)O[C@H]1C[C@H]3[C@@H]4CC[C@H]5C[C@@H](O[C@@H]6O[C@@H](CO)[C@@H](O[C@@H]7O[C@@H](CO)[C@@H](O)[C@H](O)[C@@H]7O)[C@H](O)[C@@H]6O)CC[C@]5(C)[C@H]4CC(=O)[C@]3(C)[C@H]1[C@@H]2C` [CELLOBIOSYL HECOGENIN]: 10 mg/kg.
Next, `CC1CC[C@@]2(OC1)OC1C[C@H]3[C@@H]4CC[C@H]5C[C@@H](OC6OC(CF)C(OC7OC(CF)C(O)C(O)C7O)C(O)C6O)CC[C@]5(C)[C@H]4C(=O)C[C@]3(C)C1[C@@H]2C` (stereo partly specified): 0.7 mg/kg; `C[C@@H]1CC[C@@]2(OC1)OC1CC3C4CC[C@H]5C[C@@H](O[C@@H]6O[C@@H](CO)[C@@H](O[C@@H]7O[C@@H](COC(=O)Nc8ccccc8)[C@@H](OC(=O)Nc8ccccc8)[C@H](O)[C@@H]7O)[C@H](O)[C@@H]6O)CC[C@]5(C)C4C(=O)C[C@]3(C)C1[C@@H]2C` (stereo partly specified): 0.1 mg/kg; `C[C@@H]1CC[C@@]2(OC1)OC1CC3C4CC[C@H]5C[C@@H](O[C@@H]6O[C@@H](CO)[C@@H](O[C@@H]7O[C@@H](COC(=O)N8CCCC8)[C@@H](O)[C@H](O)[C@@H]7O)[C@H](O)[C@@H]6O)CC[C@]5(C)C4C(=O)C[C@]3(C)C1[C@@H]2C` (stereo partly specified): 1.5 mg/kg.
Next, `CC1CC[C@@]2(OC1)OC1C[C@H]3[C@@H]4CC[C@H]5C[C@@H](O[C@@H]6O[C@@H](CO)[C@@H](O[C@@H]7O[C@@H](COC(=O)N8CCOCC8)[C@@H](OC(=O)N8CCOCC8)[C@H](O)C7O)[C@H](O)[C@@H]6O)CC[C@]5(C)[C@H]4C(=O)C[C@]3(C)C1[C@@H]2C` (stereo partly specified): 4 mg/kg.
`CCOCOC[C@@H]1O[C@@H](O[C@H]2[C@H](O)[C@H](O)[C@H](O[C@H]3CC[C@]4(C)C5C(=O)C[C@@]6(C)C(CC7O[C@]8(CC[C@@H](C)CO8)[C@@H](C)C76)C5CC[C@H]4C3)O[C@H]2COCOCC)[C@@H](O)[C@@H](O)[C@@H]1O` (stereo partly specified) registered an ED50 of 3 mg/kg.
Next, `C[C@@H]1CC[C@@]2(OC1)O[C@H]1C[C@H]3[C@@H]4CC=C5C[C@@H](O[C@@H]6O[C@@H](CO)[C@@H](O[C@@H]7O[C@@H](CO)[C@@H](O)[C@H](O)[C@@H]7O)[C@H](O)[C@@H]6O)CC[C@]5(C)[C@H]4CC[C@]3(C)[C@H]1[C@@H]2C`: 100 mg/kg.
